≈ marks a conversion by molar mass, not a printed value.
Columns and labels:
Assay in all cases: ≥ marks a high value that may be exact or a test limit, other limits are often not marked, values filed in µg/mL are converted to µM
[1] = system: Cryptococcus neoformans ATCC 32264
[2] = system: Staphylococcus aureus ATCC 43300
[3] = system: Staphylococcus aureus ATCC 33591
Salmonella sp. = system: Salmonella sp.
Yersinia enterocolitica = system: Yersinia enterocolitica
[4] = system: Salmonella enterica subsp. enterica serovar Enteritidis
Escherichia coli = system: Escherichia coli
[5] = system: Candida albicans ATCC 10231
[6] = system: Pseudomonas aeruginosa ATCC 27853
[7] = system: Staphylococcus aureus ATCC 29213
[8] = system: Pseudomonas aeruginosa DSM 1117
[9] = system: Salmonella typhimurium KCTC 1926
[10] = system: Staphylococcus aureus KCTC 1621
[11] = system: Escherichia coli DSM 1103
[12] = system: Bacillus subtilis KCTC 3068
[13] = system: Escherichia coli KCTC 1682
[14] = system: Staphylococcus epidermidis DSM 1798
[15] = system: Staphylococcus epidermidis KCTC 1917
[16] = system: Pseudomonas aeruginosa KCTC 1637
[17] = system: Staphylococcus aureus DSM 1104
[18] = system: Franconibacter helveticus DSM 18396
[19] = system: Bacillus subtilis DSM 347
[20] = system: Kocuria rhizophila DSM 348
[21] = system: Escherichia coli DH5alpha
[22] = system: Listeria fleischmannii DSM 24998
[23] = system: Listeria monocytogenes DSM 20600
Listeria grayi DSM 20601 = system: Listeria grayi DSM 20601
[24] = system: Micrococcus luteus DSM 20030

## CC[C@H](C)[C@H](NC(=O)[C@H](CCCNC(=N)N)NC(=O)[C@@H](NC(=O)[C@H](CCC(N)=O)NC(=O)[C@@H](N)CCCNC(=N)N)[C@@H](C)CC)C(=O)N[C@@H](Cc1c[nH]c2ccccc12)C(=O)N[C@@H](Cc1ccccc1)C(=O)N[C@@H](CCC(N)=O)C(=O)N[C@@H](CC(N)=O)C(=O)N[C@@H](CCCNC(=N)N)C(=O)N[C@@H](CCCNC(=N)N)C(=O)N[C@@H](CCSC)C(=O)N[C@@H](CCCNC(=N)N)C(=O)N[C@@H](Cc1c[nH]c2ccccc12)C(=O)N[C@@H](CCCNC(=N)N)C(=O)N[C@@H](CCCNC(=N)N)C(N)=O [RQIRIWFQNRRMRWRR]
[1]
  MIC: ≥ 50 µM
[2]
  MIC: > 50 µM
[3]
  MIC: 16 µM (≈ 37.7 µg/mL)
Salmonella sp.
  MIC: ≥ 50 µM
Yersinia enterocolitica
  MIC: ≥ 50 µM
[4]
  MIC: 25 µM (≈ 58.9 µg/mL)
Escherichia coli
  MIC: 25 µM (≈ 58.9 µg/mL)
[5]
  MIC: 100 µM (≈ 236 µg/mL)
[6]
  MIC: > 50 µM
[7]
  MIC: > 50 µM

## NCCCC[C@H](NC(=O)[C@H](CCCN=C(N)N)NC(=O)CN)C(=O)N[C@@H](CCCCN)C(=O)N[C@@H](CCCN=C(N)N)C(=O)N[C@@H](CCCN=C(N)N)C(=O)N[C@@H](CCC(N)=O)C(=O)N[C@@H](CCCN=C(N)N)C(=O)N[C@@H](CCCN=C(N)N)C(=O)N[C@@H](CCCN=C(N)N)C(=O)N1CCC[C@H]1C(=O)N1CCC[C@H]1C(=O)N[C@@H](CCC(N)=O)C(=O)O [GRKKRRQRRRPPQ]
[8]
  MIC: ≥ 128 µM
[9]
  MIC: 8 µM (≈ 13.8 µg/mL)
[10]
  MIC: 4 µM (≈ 6.88 µg/mL)
[11]
  MIC: ≥ 128 µM
[12]
  MIC: 4 µM (≈ 6.88 µg/mL)
[13]
  MIC: 2 µM (≈ 3.44 µg/mL)
[14]
  MIC: ≥ 128 µM
[15]
  MIC: 4 µM (≈ 6.88 µg/mL)
[16]
  MIC: 4 µM (≈ 6.88 µg/mL)
[17]
  MIC: ≥ 128 µM

## CC(C)C[C@H](NC(=O)[C@H](C)NC(=O)[C@H](CCCN=C(N)N)NC(=O)[C@H](CC(C)C)NC(=O)[C@H](C)NC(=O)[C@H](CC(C)C)NC(=O)[C@H](CCCN=C(N)N)NC(=O)[C@H](CC(C)C)NC(=O)[C@H](C)NC(=O)[C@H](CC(C)C)NC(=O)[C@@H](N)CCCN=C(N)N)C(=O)N[C@@H](CCCN=C(N)N)C(=O)N[C@@H](C)C(=O)N[C@@H](C)C(=O)N[C@@H](CC(C)C)C(=O)N[C@@H](CCCN=C(N)N)C(=O)N[C@@H](CC(C)C)C(=O)N[C@@H](C)C(N)=O [RLALRLALRALRAALRLA]
[8]
  MIC: ≥ 115 µM
[11]
  MIC: ≥ 57 µM
[14]
  MIC: 4 µM (≈ 8.07 µg/mL)
[17]
  MIC: 29 µM (≈ 58.5 µg/mL)

## CC[C@H](C)[C@H](NC(=O)CN)C(=O)NCC(=O)N[C@@H](CCCCN)C(=O)N[C@@H](Cc1ccccc1)C(=O)N[C@@H](CC(C)C)C(=O)N[C@@H](Cc1cnc[nH]1)C(=O)N[C@@H](CO)C(=O)N[C@@H](C)C(=O)N[C@@H](CCCCN)C(=O)N[C@@H](CCCCN)C(=O)N[C@@H](Cc1ccccc1)C(=O)NCC(=O)N[C@@H](CCCCN)C(=O)N[C@@H](C)C(=O)N[C@@H](Cc1ccccc1)C(=O)N[C@H](C(=O)NCC(=O)N[C@@H](CCC(=O)O)C(=O)N[C@@H](C)C(=O)N[C@@H](CCSC)C(=O)N[C@@H](CC(N)=O)C(=O)N[C@@H](CO)C(=O)O)C(C)C [GIGKFLHSAKKFGKAFVGEAMNS]
[18]
  MIC: ≥ 64 µM
[19]
  MIC: 16 µM (≈ 38.8 µg/mL)
[20]
  MIC: ≥ 256 µM
[21]
  MIC: ≥ 128 µM

## CC[C@H](C)[C@H](NC(=O)[C@H](C)NC(=O)[C@H](CCCCN)NC(=O)[C@H](CCCCN)NC(=O)[C@@H](NC(=O)[C@@H]1CCCN1C(=O)[C@H](CCCCN)NC(=O)[C@H](Cc1c[nH]c2ccccc12)NC(=O)[C@H](CC(C)C)NC(=O)[C@H](CCCCN)NC(=O)CNC(=O)[C@H](Cc1c[nH]c2ccccc12)NC(=O)[C@H](Cc1ccccc1)NC(=O)CN)C(C)C)C(N)=O [GFWGKLWKPVKKAI]
[22]
  MIC: 15 µM (≈ 24.9 µg/mL)
[23]
  MIC: 30 µM (≈ 49.7 µg/mL)
Listeria grayi DSM 20601
  MIC: 8 µM (≈ 13.3 µg/mL)
[24]
  MIC: 2 µM (≈ 3.31 µg/mL)
